Assay results as given in patent US12552804B2, “Tricyclic heterocycles as FGFR inhibitors” (Incyte Corporation, priority 2019, dated 2026).

Each molecule was assayed against wild-type un-phosphorylated FGFR3 protein (Homo sapiens, UniProt P22607) (assay: FGFR Enzymatic Assay (FRET detection of peptide phosphorylation)). Conditions: pre-incubated for 4 hours, read-out: FGFR3_Ki.
Sequence of wild-type un-phosphorylated FGFR3 protein (P22607 23-806): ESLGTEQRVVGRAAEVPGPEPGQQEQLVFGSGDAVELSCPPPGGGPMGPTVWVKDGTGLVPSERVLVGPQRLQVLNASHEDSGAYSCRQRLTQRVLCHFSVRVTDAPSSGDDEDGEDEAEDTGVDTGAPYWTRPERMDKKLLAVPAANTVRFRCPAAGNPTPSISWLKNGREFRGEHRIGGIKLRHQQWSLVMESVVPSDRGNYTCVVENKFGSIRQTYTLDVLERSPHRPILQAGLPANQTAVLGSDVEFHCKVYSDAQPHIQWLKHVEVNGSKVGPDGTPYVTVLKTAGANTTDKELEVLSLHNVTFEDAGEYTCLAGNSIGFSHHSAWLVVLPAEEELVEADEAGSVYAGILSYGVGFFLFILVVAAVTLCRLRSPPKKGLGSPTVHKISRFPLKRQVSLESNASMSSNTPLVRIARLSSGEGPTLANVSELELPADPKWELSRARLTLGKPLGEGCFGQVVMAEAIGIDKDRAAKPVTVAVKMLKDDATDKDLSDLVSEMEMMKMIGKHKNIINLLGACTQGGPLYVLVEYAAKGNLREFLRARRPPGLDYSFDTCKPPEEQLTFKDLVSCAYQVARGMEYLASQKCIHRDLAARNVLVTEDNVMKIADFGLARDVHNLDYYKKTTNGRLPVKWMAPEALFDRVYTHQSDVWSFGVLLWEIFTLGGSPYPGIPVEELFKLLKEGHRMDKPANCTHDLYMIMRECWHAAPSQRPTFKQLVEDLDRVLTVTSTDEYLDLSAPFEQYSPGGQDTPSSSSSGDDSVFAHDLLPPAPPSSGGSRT
Format: biochemical
Procedure: The inhibitor potency of the exemplified compounds was determined in an enzyme discontinuous assay that measures peptide phosphorylation using FRET measurements to detect product formation. Inhibitors were serially diluted in DMSO and a volume of 0.2 μL was transferred to the wells of a 384-well plate. A 5 μL/well volume of enzyme isoforms of FGFR (−1, −2, −3 wild-type and mutant isoforms, −4) including phosphorylated and un-phosphorylated proteins diluted in assay buffer (50 mM HEPES, 10 mM MgCl2, 1 mM EGTA, 0.01% Tween-20, 5 mM DTT, pH 7.5) was added to the plate and pre-incubated with inhibitor for 5 to 15 minutes at ambient temperature. Appropriate controls (enzyme blank and enzyme with no inhibitor) were included on the plate. […] The ATP Km values were pre-determined in a separate series of experiments. The reaction plate was incubated at 25° C. for 1 hr and the reactions were ended with the addition of 5 μL/well of quench solution (50 mM Tris, 150 mM NaCl, 0.5 mg/mL BSA, pH 7.8; 45 mM EDTA, 600 nM staurosporin, with Perkin Elmer Lance Reagents at 3.75 nM Eu-antibody PY20 and 180 nM APC-Streptavidin). The plate was allowed to equilibrate for ˜10 minutes at ambient temperature before scanning on a PheraStar plate reader (BMG Labtech) instrument.
Either GraphPad prism or XLfit was used to analyze the data. The IC50 values were derived by fitting the data to a four parameter logistic equation producing a sigmoidal dose-response curve with a variable Hill coefficient. Prism equation: Y=Bottom+(Top−Bottom)/(1+10^((LogIC50−X)*Hill slope)); XLfit equation: Y=(A+((B−A)/(1+((X/C)^D)))) where X is the logarithm of inhibitor concentration and Y is the response.
The data in Table 1 was measured in wild-type un-phosphorylated FGFR3 protein.
For `CC(C)(O)Cn1cc(-c2cnc3ccn4c(CO)c(-c5c(Cl)cccc5Cl)nc4c3c2)cn1` [Example 76, 1-(4-(2-(2,6-Dichlorophenyl)-3-(hydroxymethyl)imidazo[2,1-f][1,6]naphthyridin-9-yl)-1H-pyrazol-1-yl)-2-methylpropan-2-ol], the Ki was < 10 nM.
With `Cc1c(-c2c(Cl)cccc2Cl)nc2c3cc(-c4cnn(C56CC5CN(C(=O)CO)C6)c4)cnc3ccn12` (stereo not drawn) [Example 54, 1-(1-(4-(2-(2,6-Dichlorophenyl)-3-methylimidazo[2,1-f][1,6]naphthyridin-9-yl)-1H-pyrazol-1-yl)-3-azabicyclo[3.1.0]hexan-3-yl)-2-hydroxyethan-1-one] the Ki was < 10 nM.
`Cc1nn(C)cc1-c1cnc2ccn3cc(-c4c(F)cccc4Cl)nc3c2c1` [Example 12, 2-(2-Chloro-6-fluorophenyl)-9-(1,3-dimethyl-1H-pyrazol-4-yl)imidazo[2,1-f][1,6]naphthyridine] gave a Ki of 10 to 100 nM.
With `CC(C)c1c(-c2ccccc2Cl)nc2c3cc(-c4cnn([C@H]5CCN(C(=O)CO)C5)c4)cnc3ccn12` [Example 65, (S)-1-(3-(4-(2-(2-Chlorophenyl)-3-isopropylimidazo[2,1-f][1,6]naphthyridin-9-yl)-1H-pyrazol-1-yl)pyrrolidin-1-yl)-2-hydroxyethan-1-one] the Ki was 10 to 100 nM.
In the case of `OCc1c(-c2c(Cl)cccc2Cl)nc2c3cc(-c4cnn(C5CCOC5)c4)cnc3ccn12` (stereo not drawn) [Example 70, (2-(2,6-Dichlorophenyl)-9-(1-(tetrahydrofuran-3-yl)-1H-pyrazol-4-yl)imidazo[2,1-f][1,6]naphthyridin-3-yl)methanol], the Ki is reported as < 10 nM.
`Cc1c(-c2c(Cl)cccc2Cl)nc2c3cc(-c4ccc(C5CN(C(=O)CO)C5)nc4)cnc3ccn12` [Example 61, 1-(3-(5-(2-(2,6-Dichlorophenyl)-3-methylimidazo[2,1-f][1,6]naphthyridin-9-yl)pyridin-2-yl)azetidin-1-yl)-2-hydroxyethan-1-one] was tested, and the Ki was 10 to 100 nM.
For `O=C(CO)N1CC[C@H](n2cc(-c3cnc4ccn5c(CO)c(-c6c(Cl)cccc6Cl)nc5c4c3)cn2)C1` [Example 55, (S)-1-(3-(4-(2-(2,6-Dichlorophenyl)-3-(hydroxymethyl)imidazo[2,1-f][1,6]naphthyridin-9-yl)-1H-pyrazol-1-yl)pyrrolidin-1-yl)-2-hydroxyethan-1-one], the Ki was < 10 nM.
`CC(=O)N1CCN(c2ccc(-c3cnc4ccc5c(nc(-c6c(F)cccc6Cl)n5C)c4n3)cn2)CC1` [Example 22, 1-(4-(5-(2-(2-Chloro-6-fluorophenyl)-3-methyl-3H-imidazo[4,5-f]quinoxalin-8-yl)pyridin-2-yl)piperazin-1-yl)ethan-1-one] was tested, and the Ki was < 10 nM.
In the case of `CC(C)n1cc(-c2cnc3ccn4c(CO)c(-c5c(Cl)cccc5Cl)nc4c3c2)cn1` [Example 73, (2-(2,6-Dichlorophenyl)-9-(1-isopropyl-1H-pyrazol-4-yl)imidazo[2,1-f][1,6]naphthyridin-3-yl)methanol], the Ki is reported as < 10 nM.
`Cc1c(-c2c(Cl)cccc2Cl)nc2c3c(O[C@H]4CCOC4)c(-c4cnn(C)c4)cnc3ccn12` [Example 32, (S)-2-(2,6-Dichlorophenyl)-3-methyl-9-(1-methyl-1H-pyrazol-4-yl)-10-((tetrahydrofuran-3-yl)oxy)imidazo[2,1-f][1,6]naphthyridine] showed a Ki of 100 to 400 nM.
For `Cn1cc(-c2cnc3ccn4c(CO)c(-c5c(Cl)cccc5Cl)nc4c3c2)cn1` [Example 68, (2-(2,6-Dichlorophenyl)-9-(1-methyl-1H-pyrazol-4-yl)imidazo[2,1-f][1,6]naphthyridin-3-yl)methanol], the Ki was < 10 nM.
`CC(=O)N1CC[C@H](n2cc(-c3cnc4ccn5c(CO)c(-c6c(Cl)cccc6Cl)nc5c4c3)cn2)C1` [Example 56, (S)-1-(3-(4-(2-(2,6-Dichlorophenyl)-3-(hydroxymethyl)imidazo[2,1-f][1,6]naphthyridin-9-yl)-1H-pyrazol-1-yl)pyrrolidin-1-yl)ethan-1-one] was tested, and the Ki was < 10 nM.
With `Cc1c(-c2c(Cl)cccc2Cl)nc2c3cc(-c4cnn(C56CCN(C(=O)CO)CC5C6)c4)cnc3ccn12` (stereo not drawn) [Example 59, 1-(6-(4-(2-(2,6-Dichlorophenyl)-3-methylimidazo[2,1-f][1,6]naphthyridin-9-yl)-1H-pyrazol-1-yl)-3-azabicyclo[4.1.0]heptan-3-yl)-2-hydroxyethan-1-one] the Ki was < 10 nM.
For `Cn1cc(-c2cnc3ccn4c(C#N)c(-c5ccccc5Cl)nc4c3c2)cn1` [Example 7, 2-(2-Chlorophenyl)-9-(1-methyl-1H-pyrazol-4-yl)imidazo[2,1-f][1,6]naphthyridine-3-carbonitrile], the Ki was 100 to 400 nM.
`Cc1cccc(-c2nc3c4cc(-c5cnn(C)c5)cnc4ccn3c2C)c1C` [Example 29, 2-(2,3-Dimethylphenyl)-3-methyl-9-(1-methyl-1H-pyrazol-4-yl)imidazo[2,1-f][1,6]naphthyridine] showed a Ki of 10 to 100 nM.
With `Cn1cc(-c2cnc3ccn4c(C5CC5)c(-c5ccccc5Cl)nc4c3n2)cn1` [Example 13, 9-(2-Chlorophenyl)-8-cyclopropyl-2-(1-methyl-1H-pyrazol-4-yl)imidazo[1′,2′:1,2]pyrido[3,4-b]pyrazine] the Ki was < 10 nM.
For `CC(=O)N1CC(c2ccc(-c3cnc4ccn5c(C)c(-c6c(Cl)cccc6Cl)nc5c4c3)cc2)C1` [Example 63], the Ki was < 10 nM.
For `CC(=O)N1CCC2CC2(n2cc(-c3cnc4ccn5c(C)c(-c6c(Cl)cccc6Cl)nc5c4c3)cn2)C1` (stereo not drawn) [Example 60, 1-(1-(4-(2-(2,6-Dichlorophenyl)-3-methylimidazo[2,1-f][1,6]naphthyridin-9-yl)-1H-pyrazol-1-yl)-3-azabicyclo[4.1.0]heptan-3-yl)ethan-1-one], the Ki was < 10 nM.
For `C=CC(=O)Nc1ccc(Cl)c(-c2nc3c4cc(-c5cnn(C)c5)cnc4ccn3c2C)c1Cl` [Example 34, N-(2,4-Dichloro-3-(3-methyl-9-(1-methyl-1H-pyrazol-4-yl)imidazo[2,1-f][1,6]naphthyridin-2-yl)phenyl)acrylamide], the Ki was < 10 nM.
`CCc1c(-c2ccccc2Cl)nc2c3cc(-c4cnn(C)c4)cnc3ccn12` [Example 9, 2-(2-Chlorophenyl)-3-ethyl-9-(1-methyl-1H-pyrazol-4-yl)imidazo[2,1-f][1,6]naphthyridine] gave a Ki of 10 to 100 nM.
For `Cc1c(-c2c(Cl)cccc2Cl)nc2c3cc(-c4cnn(C5CCC(C)(C(=O)O)CC5)c4)cnc3ccn12` (stereo not drawn) [Example 49, 4-(4-(2-(2,6-Dichlorophenyl)-3-methylimidazo[2,1-f][1,6]naphthyridin-9-yl)-1H-pyrazol-1-yl)-1-methylcyclohexane-1-carboxylic acid], the Ki was < 10 nM.
For `Cc1c(-c2ccccc2Cl)nc2c3cc(-c4cnn(C)c4)cnc3ccn12` [Example 1, 2-(2-Chlorophenyl)-3-methyl-9-(1-methyl-1H-pyrazol-4-yl)imidazo[2,1-f][1,6]naphthyridine], the Ki was 10 to 100 nM.
`OCc1c(-c2c(Cl)cccc2Cl)nc2c3cc(-c4cnn(C5CC5)c4)cnc3ccn12` [Example 69, (9-(1-Cyclopropyl-1H-pyrazol-4-yl)-2-(2,6-dichlorophenyl)imidazo[2,1-f][1,6]naphthyridin-3-yl)methanol] was tested, and the Ki was < 10 nM.
With `C/C=C/c1c(-c2ccccc2Cl)nc2c3cc(-c4cnn(C)c4)cnc3ccn12` [Example 3, (E)-2-(2-Chlorophenyl)-9-(1-methyl-1H-pyrazol-4-yl)-3-(prop-1-en-1-yl)imidazo[2,1-f][1,6]naphthyridine] the Ki was 10 to 100 nM.
`Cn1cc(-c2cnc3ccc4c(nc(N5[C@@H]6CC[C@H]5C(=O)NC6)n4C)c3n2)cn1` [Example 24, (1S,5R)-8-(3-Methyl-8-(1-methyl-1H-pyrazol-4-yl)-3H-imidazo[4,5-f]quinoxalin-2-yl)-3,8-diazabicyclo[3.2.1]octan-2-one] was tested, and the Ki was ≥ 400 nM.
`Cc1c(C2CC2)nc2c3cc(-c4cnn(C)c4)cnc3ccn12` [Example 67, 2-Cyclopropyl-3-methyl-9-(1-methyl-1H-pyrazol-4-yl)imidazo[2,1-f][1,6]naphthyridine] showed a Ki of 100 to 400 nM.
In the case of `CN1CCC(n2cc(-c3cnc4ccn5c(CO)c(-c6c(Cl)cccc6Cl)nc5c4c3)cn2)CC1` [Example 78, (2-(2,6-Dichlorophenyl)-9-(1-(1-methylpiperidin-4-yl)-1H-pyrazol-4-yl)imidazo[2,1-f][1,6]naphthyridin-3-yl)methanol], the Ki is reported as < 10 nM.
In the case of `CS(=O)(=O)CCn1cc(-c2cnc3ccn4c(CO)c(-c5c(Cl)cccc5Cl)nc4c3c2)cn1` [Example 80, (2-(2,6-Dichlorophenyl)-9-(1-(2-(methylsulfonyl)ethyl)-1H-pyrazol-4-yl)imidazo[2,1-f][1,6]naphthyridin-3-yl)methanol], the Ki is reported as < 10 nM.
`Cn1cc(-c2cnc3ccn4c(C5CC5)c(-c5ccccc5Cl)nc4c3c2)cn1` [Example 8, 2-(2-Chlorophenyl)-3-cyclopropyl-9-(1-methyl-1H-pyrazol-4-yl)imidazo[2,1-f][1,6]naphthyridine] was tested, and the Ki was < 10 nM.
For `Cc1c(-c2c(Cl)cccc2Cl)nc2c3cc(-c4cnn(C5CN(C(=O)C6(N)CC6)C5)c4)cnc3ccn12` [Example 37, (1-Aminocyclopropyl)(3-(4-(2-(2,6-dichlorophenyl)-3-methylimidazo[2,1-f][1,6]naphthyridin-9-yl)-1H-pyrazol-1-yl)azetidin-1-yl)methanone], the Ki was < 10 nM.
